Experiments:
BCR-NTRK1 BaF3 cells = molecular target: T1, BCR-NTRK1 BaF3 cells (Homo sapiens, UniProt P04629); assay: BaF3 BCR-NTRK1 cell proliferation assay (ATPlite); assay type: cell-based; conditions: read-out: Inhibition of Cell Proliferation IC50, BCR/BaF3 TrkA
T1 construct: fused on or other part: P11274 (Breakpoint cluster region protein)
In short: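 BaF3 cells expressing BCR fusions were plated at 10,000 cells/well without IL-3, and MV-4-11 cells at 25,000 cells/well. Cells were treated the next day with an 8-point 1:3 dilution series (top 10 μM final) and incubated 3 days at 37 °C. ATPlite luminescence gave cell number, from which IC50 was fitted.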

BCR-FMS BaF3 cells = assay: Splenomegaly mouse model, BCR-FMS BaF3 cells; assay type: in vivo
Experimental: BaF3 cells are engineered with any of BCR-FMS, BCR-TRK1 or BCR-TRK2 to assess in vivo inhibitory effects of Fms, TrkA or TrkB inhibition, respectively. BaF3 cells are maintained in growth media (RPMI containing 10% FBS, 1% PenStrep, 1% NEAA, and 1% L-Glutamine, supplemented with 5% murine IL-3 and 1 mg/mL G418). Four days prior to start, 2×10^6 cells are inoculated into a T150 vented flask using the growth media and incubated at 37° C. in 5% CO2 for three days. One day prior to start, cells are collected by centrifugation and are suspended in growth media without IL-3. On the day of cell implant, the cells are collected by centrifugation, rinsed 3×20 mL with RPMI, then are suspended in 5.4 mL of media and counted, then adjusted with additional RPMI as needed to give 5×10^7 cells/mL. On day 1, female nu/nu mice at 5-6 weeks of age are injected intravenously with BaF3 cells injected injecting 0.1 mL (5×10^6) cells in the tail vein (mice without cell injected are included as control group). Compound stocks in dimethylsulfoxide are stored at room temperature protected from light. Stocks are diluted prior to dosing, diluting 22 μL of compound stock into 858 μL of diluent (or 50 μL into 1950 μL) to provide vehicle of 1.0% Polysorbate 80, 0.5% hydroxypropyl methyl cellulose, with final dimethylsulfoxide at 2.5% in all dosing suspensions and vehicle control. Dosing suspension is prepared prior to use, mixing by inversion and sonication in a water bath to make a uniform suspension. On days 10-18, mice are treated with vehicle only or the desired level of compound in vehicle, ˜0.2 mL per 25 gm mouse, once a day by oral gavage, or in some instances, twice per day. On day 18, mice are administered a final dose and two hours later a plasma sample is taken. At four hours following the final dose, mice are sacrificed, an additional plasma sample is collected and mouse spleens are removed and weighed. The average spleen weight of vehicle control group mice is compared to the average spleen weight of the test compound mice. Percent spleen growth inhibition is calculated as 100×[(spleen weight vehicle control-spleen weight test compound)/spleen weight vehicle control]. In some instances, the compounds were not tested in all of the assays as indicated by NA in the table below.

SKNSH cells = assay: SKNSH (human neuroblastoma) cell proliferation assay (ATPlite); assay type: cell-based; conditions: SK-N-SH, read-out: Inhibition of Cell Proliferation IC50, SKNSH
Experimental: Compounds are assessed in a variety of cell based assays. For example BaF3 cells engineered with any of BCR-FMS, BCR-KIT, BCR-FLT3, BCR-NTRK1, BCR-NTRK2, and BCR-NTRK3, are used in cell proliferation assays to assess inhibitory activity of Fms, Kit, Flt-3, TrkA, TrkB, and TrkC, respectively. An MV-4-11 (leukemia) cell proliferation assay is used to assess inhibitory activity in Flt-3, and SKNSH (human neuroblastoma) cell proliferation assay is used to assess efficacy of Fms/Trk inhibitors. Additional cells may be assayed similarly to assess the efficacy of Fms/Trk inhibitors, such as MiaPaCa (human pancreatic cancer) and Capan-1 (human pancreatic carcinoma) cells. Reagent and assay conditions are as follows: • BaF3 cells: • Maintained in RPMI containing 10% FBS, 1% PenStrep, 1% NEAA, and 1% L-Glutamine, supplemented with 1 mg/mL G418 and 5% WEHI-CM (or recombinant murine IL-3). • Confluent cells are split 1:50 to 1:100 every 3-4 days. • MV-4-11 cells: • Maintained in Iscove's Modified Dulbecco's Medium containing 10% FBS. • Confluent cells are split 1:4 every 3-4 days. • SKNSH cells: RPMI containing 10% FBS. On day 1, cells are counted, then centrifuged in a conical tube for 5 minutes at 1000 rpm. The supernatant is removed and cells are re-suspended as follows: • BaF3: resuspend in growth media +1 mg/mL G418 (without WEHFIL-3) to 2×10^5 cells/mL. • MV-4-11: resuspend in growth media to 5×10^5 cells/mL. • SKNSH: resuspend in growth media to 2×10^4 cells/mL. The cells are plated (50 μL, 150 μL for SKNSH cells) in each well of a 96-well dish (Corning 3610) and incubated at 37° C. in 5% CO2 overnight, cells plated to a final concentration of cells as follows: • BaF3: 10,000 cells per well. • MV-4-11: 25,000 cells per well. • SKNSH: 3,000 cells per well. On day 2, compound at a maximum concentration of 5 mM is serially diluted 1:3 for a total of 8 point titration with DMSO as a control. A 1 μL aliquot of each dilution point is added to 249 μL growth media and 50 μL is added to a well containing cells, providing 10 μM compound for the maximum concentration point. The cells are incubated for 3 days at 37° C. in 5% CO2. For SKNSH cells, a 0.75 μL aliquot of appropriate dilution in DMSO is added to 150 μL of cells. On day 5, ATPlite 1 step Luminescence Assay System (Perkin Elmer #6016739) is brought to room temperature along with the cell cultures. ATPlite is added to each well as follows: • BaF3: 25 μL per well. • MV-4-11: 40 μL per well. • SKNSH: 20 μL per well. The cells are incubated at room temperature for 10 minutes, then luminescence is read on Safire reader. The measured luminescence correlates directly with cell number, such that the reading as a function of compound concentration is used to determine the IC50 value.
It is understood that the results of these assays may vary as assay conditions are varied. Inhibition levels determined under the conditions described herein represent a relative activity for the compounds tested under the specific conditions employed. The cell based assays are likely to show variability due to the complexity of the system and the sensitivity thereof to any changes in the assay conditions. […] Results for compounds that are tested and show substantially no inhibition below the highest tested concentration are represented as “-” in the tables below. In some instances, the compounds were not tested in all of the assays, or assay results were not valid, as indicated by NA in the tables below.

[1] = dosed once per day at 10 mg per kg

T1 sequence (P04629 510-781): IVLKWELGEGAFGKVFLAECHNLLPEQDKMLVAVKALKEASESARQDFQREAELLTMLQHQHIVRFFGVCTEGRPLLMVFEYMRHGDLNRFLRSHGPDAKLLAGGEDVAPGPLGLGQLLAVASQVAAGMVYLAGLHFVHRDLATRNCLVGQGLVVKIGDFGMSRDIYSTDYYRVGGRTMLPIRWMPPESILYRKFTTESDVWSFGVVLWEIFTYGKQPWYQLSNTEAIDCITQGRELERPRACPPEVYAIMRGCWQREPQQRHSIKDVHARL

Structure (SMILES)	IC50 (BCR-NTRK1 BaF3 cells) [nM]	% spleen growth inhibition, Fms (BCR-FMS BaF3 cells; [1]) [%]	IC50 (SKNSH cells) [nM]	% spleen growth inhibition, Fms (BCR-FMS BaF3 cells; dosed at 5 mg/kg) [%]
Cc1cnc2[nH]cc(Cc3cnc(Nc4ccc(F)cc4)nc3)c2c1 [Compound P-3010, (4-Fluoro-phenyl)-[5-(5-methyl-1H-pyrrolo[2,3-b]pyridin-3-ylmethyl)-pyrimidin-2-yl]-amine]	> 10000	47		
Fc1nc(NC2CCC(F)(F)CC2)ccc1Cc1c[nH]c2ncc(Cl)cc12 [Compound P-3013, [5-(5-Chloro-1H-pyrrolo[2,3-b]pyridin-3-ylmethyl)-6-fluoro-pyridin-2-yl]-(4,4-difluoro-cyclohexyl)-amine]	> 10000	48		
O=C(c1ccc(NC2CCC(F)(F)CC2)nc1F)c1c[nH]c2ncnc(NCC(F)(F)F)c12 [Compound P-4061, [6-[(4,4-difluorocyclohexyl)amino]-2-fluoro-3-pyridyl]-[4-(2,2,2-trifluoroethylamino)-7H-pyrrolo[2,3-d]pyrimidin-5-yl]methanone]	< 100	48		
CCNc1ncnc2[nH]cc(C(=O)c3ccc(Nc4ccc(CC)nc4)nc3F)c12 [Compound P-4123, [4-(ethylamino)-7H-pyrrolo[2,3-d]pyrimidin-5-yl]-[6-[(6-ethyl-3-pyridyl)amino]-2-fluoro-3-pyridyl]methanone]	< 10		< 100	14
O=C(c1ccc(NC2CCC(F)(F)CC2)nc1F)c1c[nH]c2ncnc(NC3CC3)c12 [Compound P-4062, [4-(cyclopropylamino)-7H-pyrrolo[2,3-d]pyrimidin-5-yl]-[6-[(4,4-difluorocyclohexyl)amino]-2-fluoro-3-pyridyl]methanone]	< 10	76	< 1000	
CCc1ccc(Nc2ccc(C(=O)c3c[nH]c4ncnc(NC)c34)c(F)n2)cn1 [Compound P-4124, [6-[(6-ethyl-3-pyridyl)amino]-2-fluoro-3-pyridyl]-[4-(methylamino)-7H-pyrrolo[2,3-d]pyrimidin-5-yl]methanone]	< 10	20	< 1000	
O=C(c1ccc(Nc2ccc(C(F)(F)F)nc2)nc1F)c1c[nH]c2ncnc(NC3CC3)c12 [Compound P-4091, [4-(cyclopropylamino)-7H-pyrrolo[2,3-d]pyrimidin-5-yl]-[2-fluoro-6-[[6-(trifluoromethyl)-3-pyridyl]amino]-3-pyridyl]methanone]	< 10		< 100	
O=C(c1ccc(NC2CCC(F)(F)CC2)nc1Cl)c1c[nH]c2ncnc(NCC(F)(F)F)c12 [Compound P-4057, [2-chloro-6-[(4,4-difluorocyclohexyl)amino]-3-pyridyl]-[4-(2,2,2-trifluoroethylamino)-7H-pyrrolo[2,3-d]pyrimidin-5-yl]methanone]	> 1000		< 10000	
CCc1ccc(Nc2ccc(C(=O)c3c[nH]c4ncnc(NCCCOC)c34)c(F)n2)cn1 [Compound P-4098, [6-[(6-ethyl-3-pyridyl)amino]-2-fluoro-3-pyridyl]-[4-(3-methoxypropylamino)-7H-pyrrolo[2,3-d]pyrimidin-5-yl]methanone]	< 10		< 10000	
CCc1ccc(Nc2ccc(C(=O)c3c[nH]c4ncnc(NC5CCCC5)c34)c(F)n2)cn1 [Compound P-4099, [4-(cyclopentylamino)-7H-pyrrolo[2,3-d]pyrimidin-5-yl]-[6-[(6-ethyl-3-pyridyl)amino]-2-fluoro-3-pyridyl]methanone]	< 10		< 1000	
CNc1ncnc2[nH]cc(C(=O)c3ccc(NC4CCC(F)(F)CC4)nc3Cl)c12 [Compound P-4058, [2-chloro-6-[(4,4-difluorocyclohexyl)amino]-3-pyridyl]-[4-(methylamino)-7H-pyrrolo[2,3-d]pyrimidin-5-yl]methanone]	< 1000		< 10000	
COc1ccc(Nc2ccc(C(=O)c3c[nH]c4ncnc(NC(C)(C)C)c34)c(F)n2)cn1 [Compound P-4055, [4-(tert-butylamino)-7H-pyrrolo[2,3-d]pyrimidin-5-yl]-[2-fluoro-6-[(6-methoxy-3-pyridyl)amino]-3-pyridyl]methanone]	< 1000		< 1000	
CCc1ccc(Nc2ccc(C(=O)c3c[nH]c4ncnc(N)c34)c(F)n2)cn1 [Compound P-4065, (4-amino-7H-pyrrolo[2,3-d]pyrimidin-5-yl)-[6-[(6-ethyl-3-pyridyl)amino]-2-fluoro-3-pyridyl]methanone]	< 100		< 1000	
CNc1ncnc2[nH]cc(C(=O)c3ccc(NC4CCCCC4)nc3F)c12 [Compound P-4102, [6-(cyclohexylamino)-2-fluoro-3-pyridyl]-[4-(methylamino)-7H-pyrrolo[2,3-d]pyrimidin-5-yl]methanone]	< 1000		< 1000	
COc1cncc(Nc2ccc(C(=O)c3c[nH]c4ncnc(NC5CCCCC5)c34)c(F)n2)c1 [Compound P-4104, [4-(cyclohexylamino)-7H-pyrrolo[2,3-d]pyrimidin-5-yl]-[2-fluoro-6-[(5-methoxy-3-pyridyl)amino]-3-pyridyl]methanone]	< 100		< 1000	
COc1ccc(Nc2ccc(C(=O)c3c[nH]c4ncnc(NC5CCC(F)(F)CC5)c34)c(F)n2)cn1 [Compound P-4056, [4-[(4,4-difluorocyclohexyl)amino]-7H-pyrrolo[2,3-d]pyrimidin-5-yl]-[2-fluoro-6-[(6-methoxy-3-pyridyl)amino]-3-pyridyl]methanone]	< 1000		< 1000	

Reference: US8901118B2, “Compounds and methods for kinase modulation, and indications therefor” (Plexxikon Inc., priority 2010, dated 2014)
